{"source": "paper PMC12441861", "about": "“Next-Generation Lipid Prodrugs Orally Deliver Tenofovir via Enhanced Chylomicron Incorporation” (ACS Pharmacology & Translational Science, 2025)", "key": {"[1]": {"test": "Metabolic stability in human liver microsomes", "assay_type": "in vitro ADME", "conditions": "pH 7.4, read-out: Metabolic Stability HLM t1/2", "experimental": "Assays employed human liver microsomes (HLMs, 20 mg/mL) from Xenotech. A 10 mM NADPH stock was prepared in deionized H2O, and test compounds were dissolved in 100% MeOH to a final concentration of 10 mM. The stock solutions were diluted to 500 μM in 100 mM potassium phosphate buffer (pH 7.4), keeping the final MeOH concentration below 0.2%. Reaction mixtures were prepared by combining 928 μL phosphate buffer, 55 μL liver microsomes, and the test compound solution to a final concentration of 3 μM. Verapamil was used as a positive control. The reactions were initiated with the addition of 110 μL of 10 mM NADPH. Aliquots were taken in duplicate at 0, 5, 10, 15, and 30 min, quenched with 100 μL of cold MeOH containing 2 μM internal standard (d 5-7-ethoxy coumarin), and centrifuged at 12,000 RCF for 5 min. The supernatants were then transferred to LC-MS vials for analysis. The average of each duplicate was normalized to the 0 min time point, representing 100% remaining (0% metabolism)."}, "Cytotoxicity, MTT assay": {"test": "Cytotoxicity, MTT assay", "conditions": "human, TZM-bl cells", "protocol": "To measure cytotoxicity, HeLa-derived TZM-bl cells , were treated with serial dilutions of each drug, and viability was assessed after 48 h. Two methods were used: an ATP luminescence assay, which measures cellular ATP levels as an indicator of metabolic activity (compounds 8a–d), and an MTT assay, which evaluates cell viability via mitochondrial enzymatic activity (compounds 15b, 21a, and 21b).\nThe TZM-bl cell line (BEI Resources, ARP-8129) was used to evaluate both cell viability and HIV pseudovirus infectivity reduction. Cytotoxicity in this cell line was measured via two methods. The first method, an ATP luminescence assay, was used for compounds 15a, 15b, 21a, and 21b as such: 6000 TZM-bl cells per well were seeded in a 96-well plate and incubated at 37 °C with 5% CO2 for 24 h. Compounds were prepared as serial dilutions (final concentrations of 1, 0.2, 0.04, 0.008, and 0.0016 μM) in complete DMEM with DEAE-Dextran at 40 μg/mL to mimic HIV infectivity conditions. Solutions were added to the cells and incubated for another 48 h. Viability was assessed using the Promega Cell Titer Glow (CTG) Assay (cat No. G9242) by adding a 50% PBS-CTG solution to each well and measuring luminescence, which correlates with ATP levels, on an Agilent BioTek Synergy HT reader. Cytotoxicity of compounds 8a–d was determined using a colorimetric assay based the conversion of MTT (3-(4,5-dimethylthiazol-2-yl)-2,5-diphenyltetrazolium bromide) to formazan as described previously. TZM-bl cells were plated into 96-well tissue culture plates 1 day prior to performing the MTT assay. A series of 10 3-fold dilutions of each compound was performed from a starting concentration of 10 mM and each dilution was tested for a reduction in cell viability according to the manufacturer’s instructions (CyQuant MTT Cell Viability Assay, ThermoFisher, V13154). Wells containing TZM-bl cells with media only were used as a control. Briefly, serial dilutions of each test compound were added to the plated TZM-bl cells. At 48 h, the media was removed and replaced with 100 mL of fresh culture medium. 10 mL of 12 mM MTT solution was added to each well and incubated at 37 °C for 4 h. 85 mL of supernatant was then removed from each well and replaced with 50 mL of DMSO. Following a 10 min incubation at 37 °C, the absorbance of each well was determined at 540 nm using a Biotek Synergy Neo2 multimode reader and Gen5 v3.02 software."}, "[2]": {"conditions": "cited from earlier work"}, "[3]": {"conditions": "cited from earlier work", "remark": "listed apart in the source"}, "Caco-2 cell-derived CMs": {"system": "Caco-2 cell-derived CMs", "assay_type": "in vitro ADME, human", "conditions": "10 μM test drug, Caco-2 cells", "experimental": "[formula] 1 Chylomicron (CM) Isolation and Drug Quantification Methods ^a a (1) Caco-2 cells were grown to confluence. (2) Lipid mix was added to media (final drug concentration of 10 μM), and cells were incubated for 4 h. (3) Cells were washed 3× with PBS. (4) Cells were incubated in fresh media overnight. (5) CM-containing media was collected. (6) Media was combined with a 1.20 g/mL NaCl solution in an ultracentrifugation tube, 500 μL H2O was carefully layered on top, and the mixture was centrifuged at 10,950 RCF for 3 h. (7) The CM-containing upper layer was carefully isolated with a fine-tip pipette. (8) Test drug was then extracted from the CM layer with 70% ACN and quantified using LC-MS/MS.\nWith the presence of CMs in isolated Caco-2 cell extracts confirmed and reproducibility validated across replicates and different drugs, we were eager to investigate drug incorporation during CM biogenesis in vitro. Accordingly, we added test compound (Figure ) to differentiated Caco-2 cells along with the lipid mix to a final test drug concentration of 10 μM. While 10 μM was selected as a standard concentration for these studies, higher concentrations could allow detection of other compounds with low CM association in future experiments. In either case, CMs secreted by Caco-2 cells can be isolated postincubation, and drug concentrations within CMs can be assessed using highly sensitive LC-MS/MS methodology. Positive (high c Log D) and negative (low c Log D) control compounds were selected to validate this assay. […] Given these properties, we expected CAB to readily package into CMs in vitro. […]. […] This sets the stage for quantitative comparisons of TXL and its functionalized analogs, which are detailed below.\nAt 14-days postconfluence, Caco-2 cells were incubated in a lipid mixture to induce secretion of CMs. For the lipid solution, oleic acid (50 mg), lecithin (40 mg), and sodium taurocholate (48 mg) were weighted out into an Eppendorf tube, and the volume was brought up to 900 μL with PBS, followed by vigorous vortexing to ensure sample homogeneity. This 100× lipid mixture was then diluted into growth media to achieve the desired concentrations (2 mM oleic acid, 1.36 mM lecithin, 1 mM sodium taurocholate) by adding 500 μL of the lipid mixture to 49.5 mL of media. The lipid-supplemented media was thoroughly mixed and sterilized by filtration using a 250 mL sterile vacuum filter. For the drug-exposed CM experiments, each test compound was dissolved in 2 mM human serum albumin (HAS, Sigma, essentially fatty acid free) in DPBS, then added to 10 mL aliquots of lipid-containing media to achieve a final concentration of 10 μM. Subsequently, lipid-containing media was added to Caco-2 cells and incubated for 4 h at 37 °C. After incubation, cells were washed twice with PBS then incubated for 4, 8, or 20 h at 37 °C in fresh, colorless growth medium. Media was collected into 15 mL falcon tubes and centrifuged at 2000g to remove cell debris. Postcentrifugation, the supernatant was transferred to 50 mL Nalgene Oak Ridge High-Speed PPCO Centrifuge Tubes. Next, to adjust the density for ultracentrifugation, 1.19 g of NaCl in 2 mL of deionized (DI) H2O were added to reach a final volume of 5 mL, corresponding to a density of 1.20 g/mL. This mixture was dissolved by vortexing and balanced by weight. 500 μL of DI H2O was carefully overlaid onto the mixture. Ultracentrifugation was performed for 2 h and 30 min at 10,920 relative centrifugal force (RCF). Immediately after centrifugation, the top 500 μL layer, containing CMs, was carefully collected using a gel-loading pipet tip.\nTo an aliquot of CM extract was added an equal volume of ACN into 1.5 mL Eppendorf tubes. Tubes were shaken for 1 h at rt then centrifuged at 15,000 RCF to remove debris. The clear supernatant was transferred to a glass vial and concentrated under reduced pressure to yield a dry solid. Sample was then reconstituted in 70% ACN in H2O, filtered and then analyzed. […]"}}, "note": "Like-named read-outs stand apart in the source and are kept apart here.", "data": [{"smiles": "CCCCCCCCCCCCCCCCOC[C@@H](COP(=O)(O)CO[C@H](C)Cn1cnc2c(N)ncnc21)OCc1ccccc1", "note": "[8a, Ammonium[(1R)-2-(6-aminopurin-9-yl)-1-methyl-ethoxy]methyl-[(2S)-2-benzyloxy-3-hexadecoxy-propoxy]phosphinate]", "values": [{"measurement": "half-life at 3 µM", "setting": "[1]", "result": "> 2", "unit": "h"}, {"measurement": "CC50 at 48 h", "setting": "Cytotoxicity, MTT assay", "result": "> 10", "unit": "µM"}]}, {"smiles": "CCCCCCCCCCCCCCCCCCOC[C@@H](COP(=O)(O)CO[C@H](C)Cn1cnc2c(N)ncnc21)OCc1ccccc1", "note": "[8b, Ammonium[(1R)-2-(6-aminopurin-9-yl)-1-methyl-ethoxy]methyl-[(2S)-2-benzyloxy-3-octadecoxy-propoxy]phosphinate]", "values": [{"measurement": "half-life at 3 µM", "setting": "[1]", "result": "> 2", "unit": "h"}, {"measurement": "CC50 at 48 h", "setting": "Cytotoxicity, MTT assay", "result": "> 10", "unit": "µM"}]}, {"smiles": "CCCCCCCCCCCCCCCCOC[C@H](COP(=O)(O)CO[C@H](C)Cn1cnc2c(N)ncnc21)OCc1ccccc1", "note": "[8c, Ammonium[(1R)-2-(6-aminopurin-9-yl)-1-methyl-ethoxy]methyl-[(2R)-2-benzyloxy-3-hexadecoxy-propoxy]phosphinate]", "values": [{"measurement": "half-life at 3 µM", "setting": "[1]", "result": "> 2", "unit": "h"}, {"measurement": "CC50 at 48 h", "setting": "Cytotoxicity, MTT assay", "result": "> 10", "unit": "µM"}]}, {"smiles": "CCCCCCCCCCCCCCCC(=O)OCC(COC(=O)CCCCCCCCCCCCCCC)OC(=O)CC(C)CC(=O)Oc1cc(C)cc(C)c1C(C)(C)CC(=O)Oc1ccc2c3c1O[C@H]1[C@@]4(OC)CC[C@@]5(C[C@@H]4[C@](C)(O)C(C)(C)C)[C@@H](C2)N(CC2CC2)CC[C@]315", "note": "(stereo partly shown) [BUP-TML-C5βMe-TG]", "values": [{"measurement": "oral dose recovered in mesenteric lymph", "setting": "[2]; within 6 h, ref Quach 2022", "result": "44.7% oral dose recovered in mesenteric lymph within 6 h"}, {"measurement": "Δ Oral Availability (% versus Parent)", "setting": "[3]; parent Buprenorphine, ref Quach 2022", "result": 83, "unit": "%"}]}, {"smiles": "CO[C@H]1C(=O)[C@]2(C)[C@@H](OC)C[C@H]3OC[C@@]3(OC(C)=O)[C@H]2[C@H](OC(=O)c2ccccc2)[C@]2(O)C[C@H](OC(=O)[C@H](O)[C@@H](NC(=O)OC(C)(C)C)c3ccccc3)C(C)=C1C2(C)C", "note": "[CAB, Cabazitaxel, reference compound]", "values": [{"measurement": "detection of compound in CM extract by LC-MS/MS", "setting": "Caco-2 cell-derived CMs", "result": "presence"}]}, {"smiles": "CCCCCCCCCCCCCCCCCCCC(=O)OCC(COP(=O)([O-])OCC[N+](C)(C)C)OC(=O)C(CCC)CCC", "note": "(stereo not shown) [DP-VPA]", "values": [{"measurement": "orally-dosed drug recovered in mesenteric lymph", "setting": "[2]; ref Dahan 2008", "result": "60% orally-dosed drug recovered in mesenteric lymph"}, {"measurement": "Δ Oral Availability (% versus Parent)", "setting": "[3]; parent Valproic Acid, ref Dahan 2008", "result": 9, "unit": "%"}]}, {"smiles": "CCCCCCCCCCCCCCCC(=O)OCC(COC(=O)CCCCCCCCCCCCCCC)OC(=O)CCCSSCCCC(=O)O[C@@H](C(=O)O[C@H]1C[C@@]2(O)[C@@H](OC(=O)c3ccccc3)[C@@H]3[C@]4(OC(C)=O)CO[C@@H]4C[C@H](O)[C@@]3(C)C(=O)[C@H](O)C(=C1C)C2(C)C)[C@@H](NC(=O)OC(C)(C)C)c1ccccc1", "note": "[DTX-S-S-TG]", "values": [{"measurement": "Evidence of Lymphatic Uptake", "setting": "[2]; ref Tian 2019", "result": "Cycloheximide inhibition reduces lymphatic transport and prodrug bioavailability"}, {"measurement": "Δ Oral Availability (% versus Parent)", "setting": "[3]; parent Docetaxel, ref Tian 2019", "result": 44, "unit": "%"}]}, {"smiles": "CN(C)C(=N)N=C(N)N", "note": "[MET, metformin, reference compound]", "values": [{"measurement": "detection of compound in CM extract by LC-MS/MS", "setting": "Caco-2 cell-derived CMs", "result": "absence"}]}, {"smiles": "CCCCCCCCCCC(=O)O[C@H]1CC[C@H]2[C@@H]3CCC4=CC(=O)CC[C@]4(C)[C@H]3CC[C@]12C", "note": "[Testosterone Undecanoate (TU), Testosterone Undecanoate]", "values": [{"measurement": "lymphatic transport as share of systemic availability", "setting": "[2]; oral administration, ref not printed in text (Table 1: Shackleford 2003)", "result": "91.5–99.7%"}, {"measurement": "Δ Oral Availability (% versus Parent)", "setting": "[3]; parent Testosterone, ref Shackleford 2003", "result": 7, "unit": "%"}]}, {"smiles": "CCCCCCCCCCCCCCCC(=O)OCC(COC(=O)CCCCCCCCCCCCCCC)OC(=O)CC(C)CC(=O)OCOC1CCC2C3CCC4=CC(=O)CCC4(C)C3CCC12C", "note": "(stereo not shown) [Testosterone-ASI-C5-βMe-TG]", "values": [{"measurement": "orally-dosed drug recovered in mesenteric lymph", "setting": "[2]; ref Hu 2016", "result": "28% orally-dosed drug recovered in mesenteric lymph (0% for parent)"}, {"measurement": "Δ Oral Availability (% versus Parent)", "setting": "[3]; parent Testosterone, ref Hu 2016", "result": 90, "unit": "%"}]}, {"smiles": "C[C@]12CC[C@H]3[C@@H](CCC4=CC(=O)CC[C@@]43C)[C@@H]1CC[C@@H]2O", "note": "[Testosterone]", "values": [{"measurement": "orally-dosed drug recovered in mesenteric lymph", "setting": "[2]; in vivo, po", "result": "28% orally-dosed drug recovered in mesenteric lymph (0% for parent)"}]}]}
